Source: patent US7977304B2, “FK 228 derivates as HDAC inhibitors” (University of Southampton Highfield, priority 2005, dated 2011)

Experiments:
[1] = test system: LNCAP prostate cancer cells; assay: Activity Assay 6: CyQuant cell growth inhibition, LNCAP; assay type: cell-based; conditions: Homo sapiens, 96 h, 4 days
Experimental: We analysed the ability of compounds to inhibit the in vitro growth of human cancer cells. Cell proliferation assays were performed using the CyQuant™ assay system (Molecular Probes, Inc. USA) according to the manufacturer's instructions. MCF7 breast, A2780 ovarian and PC3 and LNCAP prostate cancer cells were plated in 96 well plates, at a density of 1000 cells for MCF7 cells or 5000 cells for M780/PC3/LNCAP cells, in 100 μl of cell culture medium per well. Compounds were added a minimum of 5 hours later, in serial dilutions in cell culture medium, in 100 μl volumes at 2× final concentration. Cell culture medium was removed after 4 (A2780, PC3 or LNCAP cells) or 6 days (MCF7 cells) by inversion of the plate onto blotting paper and cells were gently washed once with 200 μl PBS. Plates were frozen immediately for a minimum of one hour at −80° C. and then thawed. 200 μl of 1× CyQuant cell lysis buffer supplemented with dye, made according to the manufacturer's instruction, was added immediately to each well and incubated at room temperature for 3-5 minutes. Fluorescence was then measured for each well using a Cytofluor II Fluoresence Multiwell Plate Reader and CytoFluor II software with filters at 480 nm for excitation and 520 nm for emission maxima. Cell proliferation was determined for mean values of duplicate samples as percentages relative to untreated cell samples (=100%). Growth inhibition curves were used to derive IC50 values.

[2] = test system: HUT78 T-cell leukaemia cells; assay: CyQuant cell proliferation assay, HUT78; assay type: cell-based, human; conditions: data not shown
[3] = test system: HDAC (Hela Nuclear Extract); assay: Activity Assay 5: in vitro HDAC fluorescent activity assay (Biomol kit); assay type: biochemical; conditions: compounds reduced with DTT prior to analysis, 37° C., 1 hour, read-out: Inhibition of HDAC activity IC50
Experimental: We analysed the ability of compounds to inhibit in vitro HDAC activity. In vitro HDAC assays were performed using a HDAC fluorescent activity assay kit (Biomol, UK) according to the manufacturer's instructions. Compounds were reduced prior to analysis; 1 mM compound was reduced with 30 mM DTT in DMSO overnight at room temperature, protected from light. Reactions were then set up in a 96-well plate. […] Serial dilutions were set up for each compound. Reactions containing Hela extract only and assay buffer only were also set up. 25 μl diluted Fluor de Lys™ substrate (100-fold in assay buffer) was added to each reaction, which were then incubated at 37° C. for 1 hour. The reaction was stopped by addition of 50 μl Fluor de Lys™ Developer (20-fold dilution in assay buffer, plus TSA diluted 100-fold). […] Inhibition of in vitro HDAC activity was determined for mean values of duplicate samples as percentages relative to HeLa extract only reactions. IC50 values were calculated using GraphPad Prism software.

MCF7 cells = assay: Activity Assay 3: cell cycle distribution and survival by propidium iodide flow cytometry; assay type: cell-based; conditions: MCF7, ~10×IC50 for growth inhibition, 24, 48 or 72 hours
Experimental: Method; MCF7 cells were incubated with indicated concentrations of compounds, or left untreated as a control, for various times, as detailed in the figure legends. Cells were collected and the proportion of cells in different phases of the cell cycle determined using propidium iodide staining and flow cytometry as previously described (Purohit et al., Int J Ca 85, 584-9 2000). The proportion of cells with <G0/G1 content (pre G0) relative to total cells was calculated first. The proportion of cells in different cell cycle phases (G0/G1, S, G2/M) was calculated as a proportion of all cells in the cell cycle (i.e., total cells minus cells with <G0/G1 content).
MCF7 cells were incubated with the indicated concentrations of compounds (each equivalent to ˜10×IC50 values for growth inhibition), or DMSO as a solvent control, for 24, 48 or 72 hours. The proportion of cells in different phases of the cell cycle was determined by flow cytometry. Data shown are mean values ±SD, derived from two separate experiments, relative to untreated cells which are normalised to 1.

[4] = test system: histone acetylation in cardiac myocytes; assay: Activity Assay 4: histone acetylation by immunoblotting, cardiac myocytes; assay type: cell-based; conditions: 24 hours
Experimental: Method; Cardiac myocytes were prepared as described in Chembiochem. 2005 January; 6(1):162-70 and incubated with the indicated concentrations of compound 001 for 24 hours. MCF7 cells were incubated with the indicated concentrations of compound 001 for 24 hours. Expression of total histone H4 acetylation, or specific acetylation of Histone H4-K8 or Histone H3-K9 was analysed by Western blotting, as previously described (Brimmell et al. Br J Cancer. 1999 November; 81(6):1042-51) using antibodies from Upstate Biotech.
(A) MCF7 cells were incubated with compound 001 for 24 hours. Histone H4 acetylation was measured by immunoblotting. (B) Cardiac myocytes were incubated with indicated compound 001 for 24 hours. Histone H4 acetylation was measured by immunoblotting. (C) MCF7 cells were incubated with compound 001 for 24 hours. Histone H3-K9 and Histone H4-K8 acetylation was measured by immunoblotting

[5] = test system: MCF7 human breast cancer cells; assay: Activity Assay 1: CyQuant cell proliferation assay, MCF7; assay type: cell-based
Experimental: (§1) Method; Cell proliferation assays were performed using the CyQuant™ assay system (Molecular Probes, Inc. USA) according to the manufacturer's instructions. This system utilises a proprietary green fluorescent dye which undergoes strong fluorescent enhancement on binding cellular nucleic acids, to allow determination of cell number with a linear detection range between 50 to 250,000 cells. Estrogen receptor positive MCF7 breast cancer cells (ECAAC) and NHDF cells (Cambrex, UK) were plated in 96 well plates, at a density of 1000 cells in 100 μl of cell culture medium per well. Compounds were added a minimum of 5 hours later, in serial dilutions in cell culture medium, in 100 μl volumes at 2× final concentration. Six days later cell culture medium was removed by inversion of the plate onto blotting paper and cells were gently washed once with 200 μl PBS. […] Fluorescence was then measured for each well using a Cytofluor II Fluoresence Multiwell Plate Reader and CytoFluor II software with filters at 480 nm for excitation and 520 nm for emission maxima. Cell proliferation was determined for mean values of duplicate samples as percentages relative to untreated cell samples (=100%). […]
(§2) MCF7 and NHDF were incubated with the indicated concentrations of compounds. After 6 days cell growth relative to untreated cells (=100%) was determined using the CyQuant™ assay. […]

[6] = test system: normal human dermal fibroblasts (NHDF); assay: Activity Assay 1: CyQuant cell proliferation assay, NHDF; assay type: cell-based; conditions: 144 h, read-out: mean IC50 for growth inhibition (±SD), NHDF
Experimental: as §1, §2

[7] = test system: acetylated histone H4 in primary chronic lymphocytic leukaemia cells; assay: Histone H4 acetylation in primary chronic lymphocytic leukaemia cells; assay type: cell-based; conditions: data not shown

IC50 [1]: 252 nM | IC50 [3]: 9.9 nM | IC50 ([5]; Homo sapiens, 144 h, MCF7, 6 days, CyQuant, mean ± SD of multiple experiments, read-out: mean IC50 for growth inhibition (±SD), MCF7): 121 ± 52 nM
Compound: CC(C)[C@H]1NC(=O)[C@H]2CSSCC/C=C/[C@H](CC(=O)N[C@H](C)C(=O)N2)OC(=O)CNC1=O [Compound 9A, (E)-(1S,7R,10S,21R)-7-isopropyl-21-methyl-2-oxa-12,13-dithia-5,8,20,23-tetraaza-bicyclo[8.7.6]tricos-16-ene-3,6,9,19,22-pentaone]
growth of HUT78 T-cell leukaemia cells [2]: inhibited the growth of these cells | cell cycle distribution and survival (MCF7 cells): induce a predominant G2/M phase arrest and cell death | Histone H4 acetylation, cardiac myocytes [4]: induces the accumulation of acetylated histone H4 | potency of cancer cell growth inhibition compared with SAHA ([5]; MCF7, p=0.003, Student's t-test): significantly more potent than SAHA | IC50 [6]: 420 ± 42 nM | levels of acetylated histone H4, primary chronic lymphocytic leukaemia cells [7]: increased the levels of acetylated histone H4
